Assay results published in patent US9394268B2, “(E)-1-(5-methoxy-2,2-dimethyl-2H-chromen-8-yl)-3-(4-methoxyphenyl)prop-2-en-1-one and analogs thereof, as well as preparation method and use thereof” (Sichuan University, priority 2012, dated 2016).
“Also recorded” adds a separate entry of the source.

Legend:
[1] = test system: HepG2 cells; experiment: Human hepatocarcinoma HepG2 xenograft (SKLBC-76 study); assay type: in vivo, Balb/c nude mice; conditions: 2.5, 5, 10 mg/kg intravenous every three days for eight times; vs control
Experimental: (6) In Vivo Anti-Tumor Activity of SKLBC-76 on Human Hepatocarcinoma HepG2 Xenograft
Six-week-old Balb/c nude mice were obtained from Chinese Academy of Medical Science (Beijing, China). HepG2 cells (10^7 in 100 μl saline) were injected subcutaneously into the right flanks of the mice. 14 days after cell injection, fifty mice were selected and randomly divided into five groups including control, three doses of SKLBC-76 (2.5, 5, 10 mg/kg) and positive control taxol (5 mg/kg). The animals were intravenously injected with SKLBC-76 or taxol every three days for eight times. Tumor burden and animal body weight was measured every 2 or 3 days. The survival rate was also recorded. After treatment, mice were killed and tumors were collected and weighted.

[2] = test system: A549; experiment: Cell proliferative assay (MTT), A549; assay type: cell-based; conditions: Homo sapiens, 72 h incubation, read-out: IC50s A549
Procedure, shortened: (§1)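 IC50 values (mean±SEM, at least three independent experiments) come from dose-response curves of MTT absorbance at 590 nm. Treatment lasted 72 h, starting 24 h after seeding.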

[3] = test system: K562; experiment: Cell proliferative assay (MTT), K562; assay type: cell-based; conditions: Homo sapiens, 72 h incubation, read-out: IC50s K562
Procedure, shortened: as §1

[4] = test system: HepG2; experiment: Cell proliferative assay (MTT), HepG2; assay type: cell-based; conditions: Homo sapiens, 72 h incubation, read-out: IC50s HepG2
Procedure, shortened: as §1

[5] = test system: SMMC-7221; experiment: Cell proliferative assay (MTT), SMMC-7221; assay type: cell-based; conditions: 72 h incubation, read-out: IC50s SMMC-7221
Procedure, shortened: as §1

[6] = test system: LO2; experiment: Cell proliferative assay (MTT), LO2; assay type: cell-based; conditions: Homo sapiens, L02, 72 h incubation, read-out: IC50s LO2
Procedure, shortened: as §1

[7] = test system: A375; experiment: Cell proliferative assay (MTT), A375; assay type: cell-based; conditions: Homo sapiens, A-375, 72 h incubation, read-out: IC50s A375
Procedure, shortened: as §1

[8] = test system: HepG2 cells; experiment: Human hepatocarcinoma HepG2 xenograft (SKLBC-45 study); assay type: in vivo, Balb/c nude mice; conditions: 2.5, 5, 10, 20 mg/kg intravenous every three days for eight times; vs vehicle control
Experimental: (5) In Vivo Anti-Tumor Activity of SKLBC-45 on Human Hepatocarcinoma HepG2 Xenograft
Six-week-old Balb/c nude mice were obtained from Chinese Academy of Medical Science (Beijing, China). HepG2 cells (10^7 in 100 μl saline) were injected subcutaneously into the right flanks of the mice. 14 days after cell injection, seventy mice were selected and randomly divided into seven groups including saline control, vehicle control, four doses of SKLBC-45 (2.5, 5, 10, 20 mg/kg) and positive control Adriamycin (5 mg/kg). The animals were intravenously injected with saline, SKLBC-45, adriamycin or vehicle every three days for eight times. Tumor burden and animal body weight was measured every 2 or 3 days. The survival rate was also recorded. After treatment, mice were killed and tumors were collected and weighted.

[9] = test system: tumor cells; experiment: Cell proliferative assay (MTT), summary over tumor cells; assay type: cell-based; conditions: summary in words of Table 1, colon, liver, leukemia lines
Experimental: (§2) The synthesized compounds were evaluated for their cytotoxin activity against suspended tumor cells. These cells were seeded on 96-well plates and incubated for 24 h. Selected compounds were added at various doses and incubated for 72 h, MTT was then added, and the absorbance was measured at a wavelength of 590 nm. IC50 values are expressed as the mean±SEM from the dose-response curves of at least three independent experiments.

[10] = test system: SW620; experiment: Cell proliferative assay (MTT), SW620; assay type: cell-based; conditions: Homo sapiens, SW-620, 72 h incubation, read-out: IC50s SW620
Experimental: as §2

[11] = test system: several cancer cell lines; conditions: background statement; cited from earlier work
[12] = test system: HT29; experiment: Cell proliferative assay (MTT), HT29; assay type: cell-based; conditions: Homo sapiens, HT-29, 72 h incubation, read-out: IC50s HT29
Experimental: as §2

[13] = test system: B16F10 cells; experiment: Malignant melanoma B16 tumor xenograft study; assay type: in vivo, C57 mice; conditions: 5, 10 and 15 mg/kg intravenous once every other day for seven times; vs control P<0.01
Experimental: In Vivo Antitumor Activity (1) In Malignant Melanoma B16 Tumor Xenograft Study of Millepachine
Six-week-old female mice were obtained from Chinese Academy of Medical Science (Beijing, China). B16F10 cells (5×10^5 in 100 μl saline) were injected subcutaneously into the right flanks of C57 mice. When the tumor reached about 100 mm^3, mice were selected and randomly divided into four groups including control and three compounds-treated groups. The animals were intravenous injection with Millepachine (5, 10 and 15 mg/kg) or vehicle once every other day for seven times. Tumor burden was measured every 2 or 3 days with a caliper (calculated volume [mm^3]=π/6×length×width×width). After treatment, mice were killed tumors were collected and weighted.

[14] = test system: HCT116; experiment: Cell proliferative assay (MTT), HCT116; assay type: cell-based; conditions: Homo sapiens, HCT-116, 72 h incubation, read-out: IC50s HCT116
Experimental: as §2

[15] = test system: HeLa-C3 cells; conditions: background statement; cited from earlier work
[16] = test system: B16F10 cells; experiment: Malignant melanoma B16-induced lung metastasis; assay type: in vivo, C57 mice; conditions: 7.5 and 15 mg/kg intravenous once every other day for seven times
Experimental: (2) The Effect of Millepachine on the Malignant Melanoma B16-Induced Lung Metastasis
Six-week-old female mice were obtained from Chinese Academy of Medical Science (Beijing, China). B16F10 cells (5×10^5 in 100 μl saline) were injected intravenous into the caudal vein of C57 mice. The animals were intravenous injection with Millepachine (7.5 and 15 mg/kg) or vehicle once every other day for seven times after incubation of cell. After stop treatment for 20 days, mice were killed and lung metastasis was observed.

[17] = test system: SPC-A1 cells; experiment: Human lung cancer SPC-A1 xenograft; assay type: in vivo, Balb/c nude mice; conditions: 10, 20 mg/kg intravenous every three days for eight times; vs vehicle control
Experimental: (4) In Vivo Anti-Tumor Activity of SKLBC-9 on Human Lung Cancer SPC-A1 Xenograft
Six-week-old Balb/c nude mice were obtained from Chinese Academy of Medical Science (Beijing, China). SPC-A1 cells (5×10^6 in 100 μl saline) were injected subcutaneously into the right flanks of the mice. 14 days after cell injection, forty mice were selected and randomly divided into four groups including control, cisplatin (1.5 mg/kg) and SKLBC-9 (10, 20 mg/kg). The animals were intravenously injected with SKLBC-9 or vehicle every three days for eight times. Tumor burden and animal body weight was measured every 2 or 3 days. The survival rate was also recorded. After treatment, mice were killed and tumors were collected and weighted.

[18] = test system: A549 cells; experiment: Human lung cancer A549 xenograft; assay type: in vivo, Balbc mice; conditions: 5, 10 and 20 mg/kg intravenous once three days for eight times; vs control P<0.01
Experimental: (3) In Vivo Anti-Tumor Activity of SKLBC-9 on Human Lung Cancer A549 Xenograft
Six-week-old female mice were obtained from Chinese Academy of Medical Science (Beijing, China). A549 cells (5×10^6 in 100 μl saline) were injected subcutaneously into the right flanks of Balbc mice. When the tumor reached about 100 mm^3, mice were selected and randomly divided into five groups including control, cisplatin (1.5 mg/kg) and SKLBC-9 (5,10,20 mg/kg). The animals were intravenous injection with SKLBC-9 (5, 10 and 20 mg/kg) or vehicle once three days for eight times. Tumor burden was measured every 2 or 3 days with a caliper (calculated volume [mm^3]=n/6× length×width×width). After treatment, mice were killed and tumors were collected and weighted.

[19] = test system: C26 cells; experiment: C26-tumor bearing mice model (seven-compound study); assay type: in vivo, Balb/c mice; conditions: 10 mg/kg intravenous every two days for eight times; vs control
Experimental: (8) In Vivo Anti-Tumor Activity of SKLBC-45, SKLBC-68, SKLBC-74, SKLBC-75, SKLBC-76, SKLBC-79, SKLBC-80 on C26-Tumor Bearing Mice Model.
Six-week-old Balb/c mice were obtained from Chinese Academy of Medical Science (Beijing, China). C26 cells (3×10^6 in 100 μl saline) were injected subcutaneously into the right flanks of the mice. 10 days after cell injection, when the average tumor volume reached ˜60 mm^3. Fifty-four mice were selected and randomly divided into nine groups including saline control, seven compounds and positive control taxol (5 mg/kg). The treatment started one day later. The animals were intravenously injected with SKLBC-45, SKLBC-68, SKLBC-74, SKLBC-75, SKLBC-76, SKLBC-79, SKLBC-80 (all 10 mg/kg) or taxol every two days for eight times. Tumor burden and animal body weight was measured every 2 or 3 days. The survival rate was also recorded. After treatment, mice were killed and tumors were collected and weighted. The results were shown in FIGS. 15, 16, 17, 18, 19, 20 and 21.

[20] = test system: C26 cells; experiment: C26-tumor bearing mice model (SKLBC-83 study); assay type: in vivo, Balb/c mice; conditions: 10 mg/kg intravenous every two days for eight times; vs control
Experimental: (7) In Vivo Anti-Tumor Activity of SKLBC-83 on C26-Tumor Bearing Mice Model.
Six-week-old Balb/c mice were obtained from Chinese Academy of Medical Science (Beijing, China). C26 cells (3×10^6 in 100 μl saline) were injected subcutaneously into the right flanks of the mice. 10 days after cell injection, thirty mice were selected and randomly divided into three groups including saline control, SKLBC-83 (10 mg/kg) and positive control taxol (5 mg/kg). The animals were intravenously injected with […] or taxol every two days for eight times. Tumor burden and animal body weight was measured every 2 or 3 days. The survival rate was also recorded. After treatment, mice were killed and tumors were collected and weighted.

Row | Structure (SMILES) | IC50 [2] [µM] | IC50 [3] [µM] | IC50 [4] [µM] | IC50 [5] [µM] | IC50 [6] [µM] | IC50 [7] [µM] | inhibitory activity against tumor cells [9] | IC50 [10] [µM] | IC50 [12] [µM] | IC50 [14] [µM] | also measured
1 | CCC(=O)Oc1cc(/C=C/C(=O)c2ccc(OC)c3c2OC(C)(C)C=C3)ccc1OC [SKLBC-76, (E)-2-methoxy-5-(3-(5-methoxy-2,2-dimethyl-2H-chromen-8-yl)-3-oxoprop-1-en-1-yl)phenyl propionate] | 0.475 | 0.164 | 0.103 | 2.15 | > 10 | 0.443 |  |  |  |  | average tumor weight [1]: significantly lower; growth of tumor [1]: significantly inhibited
2 | CCC(=O)Oc1ccc(C(=O)/C=C/c2ccc(N(CC)CC)cc2)c2c1C=CC(C)(C)O2 [SKLBC-45, (E)-8-(3-(4-(diethylamino)phenyl)acryloyl)-2,2-dimethyl-2H-chromen-5-yl propionate] | 0.36 | 0.522 | 0.148 | 0.61 | 20 | 0.62 | better inhibitory activity; also recorded: best inhibitory activity |  |  |  | average tumor weight [8]: significantly lower; growth of tumor [8]: significantly inhibited
3 | COc1ccc(/C=C/C(=O)c2ccc(OC)c3c2OC(C)(C)C=C3)cc1 [Millepachine, (E)-1-(5-methoxy-2,2-dimethyl-2H-chromen-8-yl)-3-(4-methoxyphenyl)prop-2-en-1-one] |  | 4.56 | 2.61 |  |  |  | better inhibitory activity | 0.76 | 3.29 | 4.66 | cytotoxic effects against cancer cells [11]: significant cytotoxic and apoptotic effects; survivor time of tumor-bearing mice [13]: prolong the survivor time; tumor growth [13]: suppress tumor growth; apoptotic effects against cancer cells [15]: significant cytotoxic and apoptotic effects; lung metastasis [16]: dose-dependently inhibited; also recorded: significantly inhibited; inhibitory activity against tumor cells ([9]; listed as SKLBC-1): best inhibitory activity
4 | COc1ccc(C(=O)/C=C/c2ccc(N(C)C)cc2)c2c1C=CC(C)(C)O2 [SKLBC-9, (E)-3-(4-(dimethylamino)phenyl)-1-(5-methoxy-2,2-dimethyl-2H-chromen-8-yl)prop-2-en-1-one] |  | 3.5 | 0.73 |  |  |  | better inhibitory activity | 0.57 | 1.87 | 1.63 | average tumor weight [17]: significantly lower; growth of tumor [17]: significantly inhibited; tumor growth [18]: suppress tumor growth
5 | COc1ccc(/C=C/C(=O)c2ccc(OC)c3c2OC(C)(C)C=C3)cc1N [SKLBC-83, (E)-3-(3-amino-4-methoxyphenyl)-1-(5-methoxy-2,2-dimethyl-2H-chromen-8-yl)prop-2-en-1-one] | 0.285 | 0.246 | 0.042 | 0.278 | 8.5 | 0.111 |  |  |  |  | average tumor weight [19]: significantly lower; growth of tumor [19]: significantly inhibited; average tumor weight [20]: significantly lower; growth of tumor [20]: significantly inhibited
